# Source: PubChem BioAssay (NCI)
#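 Following 48 hours of exposure in 96-well plates, responses at five concentrations were used to interpolate endpoints linearly. Abbreviation: GI50, concentration required for 50% inhibition of growth. TGI: concentration producing complete growth inhibition.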
# What was measured:
# Assay in all cases: DTP human tumour cell line panel, 48 h
# HS 578T breast = test system: HS 578T breast
# U251 CNS = test system: U251 CNS
# SNB-75 CNS = test system: SNB-75 CNS
# IGROV1 ovarian = test system: IGROV1 ovarian
# SN12C renal = test system: SN12C renal
# MDA-MB-435 = test system: MDA-MB-435
# PC-3 prostate = test system: PC-3 prostate
# SNB-19 CNS = test system: SNB-19 CNS
# A549 NSCLC = test system: A549 NSCLC
# UO-31 renal = test system: UO-31 renal
# SW-620 colon = test system: SW-620 colon
# CAKI-1 renal = test system: CAKI-1 renal
# SK-MEL-5 melanoma = test system: SK-MEL-5 melanoma
# SF-268 CNS = test system: SF-268 CNS
# ACHN renal = test system: ACHN renal
# HL-60(TB) leukemia = test system: HL-60(TB) leukemia
# HOP-62 NSCLC = test system: HOP-62 NSCLC
# MDA-MB-231 breast = test system: MDA-MB-231 breast
# RPMI-8226 leukemia = test system: RPMI-8226 leukemia
# HCT-116 colon = test system: HCT-116 colon
# SF-539 CNS = test system: SF-539 CNS
# HT29 colon = test system: HT29 colon
# CCRF-CEM leukemia = test system: CCRF-CEM leukemia
# NCI-H460 lung = test system: NCI-H460 lung
# EKVX NSCLC = test system: EKVX NSCLC
# SK-MEL-2 melanoma = test system: SK-MEL-2 melanoma
# NCI/ADR-RES ovarian = test system: NCI/ADR-RES ovarian
# HOP-92 NSCLC = test system: HOP-92 NSCLC
# HCT-15 colon = test system: HCT-15 colon
# KM12 colon = test system: KM12 colon
# OVCAR-4 ovarian = test system: OVCAR-4 ovarian
# NCI-H23 lung = test system: NCI-H23 lung
# DU-145 prostate = test system: DU-145 prostate
# OVCAR-8 ovarian = test system: OVCAR-8 ovarian
# M14 melanoma = test system: M14 melanoma
# T-47D breast = test system: T-47D breast
# NCI-H522 lung = test system: NCI-H522 lung
# OVCAR-3 ovarian = test system: OVCAR-3 ovarian
# SK-OV-3 ovarian = test system: SK-OV-3 ovarian
# SF-295 CNS = test system: SF-295 CNS
# BT-549 breast = test system: BT-549 breast
# 786-0 renal = test system: 786-0 renal
# TK-10 renal = test system: TK-10 renal
# MOLT-4 leukemia = test system: MOLT-4 leukemia
# UACC-62 melanoma = test system: UACC-62 melanoma
# NCI-H226 lung = test system: NCI-H226 lung
# LOX IMVI melanoma = test system: LOX IMVI melanoma
# HCC-2998 colon = test system: HCC-2998 colon
# K-562 leukemia = test system: K-562 leukemia
# MALME-3M melanoma = test system: MALME-3M melanoma
# MCF7 breast = test system: MCF7 breast
# COLO 205 colon = test system: COLO 205 colon
# SK-MEL-28 melanoma = test system: SK-MEL-28 melanoma
# OVCAR-5 ovarian = test system: OVCAR-5 ovarian
# SR leukemia = test system: SR leukemia
# RXF 393 renal = test system: RXF 393 renal
# A498 renal = test system: A498 renal
# UACC-257 melanoma = test system: UACC-257 melanoma
compound,measurement,setting,value
Cc1cc2nc(NCCN)n(Cc3ccc(F)c(Cl)c3)c2cc1C,GI50,HS 578T breast,11.8 µM
same,TGI,HS 578T breast,28.2 µM
same,GI50,U251 CNS,12.3 µM
same,TGI,U251 CNS,25.1 µM
same,GI50,SNB-75 CNS,10.6 µM
same,TGI,SNB-75 CNS,23.4 µM
same,GI50,IGROV1 ovarian,11.7 µM
same,TGI,IGROV1 ovarian,27.5 µM
same,GI50,SN12C renal,15.1 µM
same,TGI,SN12C renal,29.8 µM
same,GI50,MDA-MB-435,3.68 µM
same,TGI,MDA-MB-435,14 µM
same,GI50,PC-3 prostate,10 µM
same,TGI,PC-3 prostate,22.4 µM
same,GI50,SNB-19 CNS,13.6 µM
same,TGI,SNB-19 CNS,28.6 µM
same,GI50,A549 NSCLC,17.8 µM
same,TGI,A549 NSCLC,32.2 µM
same,GI50,UO-31 renal,10.7 µM
same,TGI,UO-31 renal,24 µM
same,GI50,SW-620 colon,3.31 µM
same,TGI,SW-620 colon,10.8 µM
same,GI50,CAKI-1 renal,12.7 µM
same,TGI,CAKI-1 renal,25.4 µM
same,GI50,SK-MEL-5 melanoma,14.4 µM
same,TGI,SK-MEL-5 melanoma,27.6 µM
same,GI50,SF-268 CNS,11.6 µM
same,TGI,SF-268 CNS,26 µM
same,GI50,ACHN renal,11.2 µM
same,TGI,ACHN renal,24.7 µM
same,GI50,HL-60(TB) leukemia,2.83 µM
same,TGI,HL-60(TB) leukemia,11.7 µM
same,GI50,HOP-62 NSCLC,14.2 µM
same,TGI,HOP-62 NSCLC,28.5 µM
same,GI50,MDA-MB-231 breast,2.68 µM
same,TGI,MDA-MB-231 breast,9.44 µM
same,GI50,RPMI-8226 leukemia,3.95 µM
same,TGI,RPMI-8226 leukemia,15.1 µM
same,GI50,HCT-116 colon,2.29 µM
same,TGI,HCT-116 colon,4.7 µM
same,GI50,SF-539 CNS,11.7 µM
same,TGI,SF-539 CNS,26 µM
same,GI50,HT29 colon,11.7 µM
same,TGI,HT29 colon,24.5 µM
same,GI50,CCRF-CEM leukemia,12.7 µM
same,TGI,CCRF-CEM leukemia,29.3 µM
same,GI50,NCI-H460 lung,3.2 µM
same,TGI,NCI-H460 lung,10.4 µM
same,GI50,EKVX NSCLC,13.8 µM
same,TGI,EKVX NSCLC,28.4 µM
same,GI50,SK-MEL-2 melanoma,19.1 µM
same,TGI,SK-MEL-2 melanoma,34 µM
same,GI50,NCI/ADR-RES ovarian,16.3 µM
same,TGI,NCI/ADR-RES ovarian,32.1 µM
same,GI50,HOP-92 NSCLC,2.35 µM
same,TGI,HOP-92 NSCLC,14.3 µM
same,GI50,HCT-15 colon,5.74 µM
same,TGI,HCT-15 colon,19.1 µM
same,GI50,KM12 colon,5.28 µM
same,TGI,KM12 colon,18.6 µM
same,GI50,OVCAR-4 ovarian,14 µM
same,TGI,OVCAR-4 ovarian,28.3 µM
same,GI50,NCI-H23 lung,14.5 µM
same,TGI,NCI-H23 lung,29.2 µM
same,GI50,DU-145 prostate,14.1 µM
same,TGI,DU-145 prostate,27.4 µM
same,GI50,OVCAR-8 ovarian,17 µM
same,TGI,OVCAR-8 ovarian,33.1 µM
same,GI50,M14 melanoma,2.52 µM
same,TGI,M14 melanoma,7.07 µM
same,GI50,T-47D breast,6.16 µM
same,TGI,T-47D breast,21.7 µM
same,GI50,NCI-H522 lung,19.5 µM
same,TGI,NCI-H522 lung,35.1 µM
same,GI50,OVCAR-3 ovarian,12.8 µM
same,TGI,OVCAR-3 ovarian,27 µM
same,GI50,SK-OV-3 ovarian,16.9 µM
same,TGI,SK-OV-3 ovarian,30.8 µM
same,GI50,SF-295 CNS,12.8 µM
same,TGI,SF-295 CNS,26.1 µM
same,GI50,BT-549 breast,14.8 µM
same,TGI,BT-549 breast,30.2 µM
same,GI50,786-0 renal,10.2 µM
same,TGI,786-0 renal,23.3 µM
same,GI50,TK-10 renal,16.9 µM
same,TGI,TK-10 renal,31.2 µM
same,GI50,MOLT-4 leukemia,6.42 µM
same,TGI,MOLT-4 leukemia,22.1 µM
same,GI50,UACC-62 melanoma,13.3 µM
same,TGI,UACC-62 melanoma,27.2 µM
same,GI50,NCI-H226 lung,19.8 µM
same,TGI,NCI-H226 lung,39.7 µM
same,GI50,LOX IMVI melanoma,3.73 µM
same,TGI,LOX IMVI melanoma,14.5 µM
same,GI50,HCC-2998 colon,1.82 µM
same,TGI,HCC-2998 colon,3.65 µM
same,GI50,K-562 leukemia,2.57 µM
same,TGI,K-562 leukemia,6.97 µM
same,GI50,MALME-3M melanoma,1.83 µM
same,TGI,MALME-3M melanoma,4.19 µM
same,GI50,MCF7 breast,11.7 µM
same,TGI,MCF7 breast,27.1 µM
same,GI50,COLO 205 colon,1.68 µM
same,TGI,COLO 205 colon,3.38 µM
same,GI50,SK-MEL-28 melanoma,2.47 µM
same,TGI,SK-MEL-28 melanoma,6.63 µM
same,GI50,OVCAR-5 ovarian,13.7 µM
same,TGI,OVCAR-5 ovarian,28.3 µM
same,GI50,SR leukemia,2.03 µM
same,TGI,SR leukemia,6.04 µM
O=C(COc1ccc(Cl)c(Cl)c1)Nc1ccc[n+](Cc2ccc(S(=O)(=O)F)c(Cl)c2)c1,TGI,HS 578T breast,> 100 µM
same,TGI,U251 CNS,> 100 µM
same,TGI,SNB-75 CNS,> 100 µM
same,TGI,IGROV1 ovarian,> 100 µM
same,TGI,SN12C renal,> 100 µM
same,TGI,MDA-MB-435,> 100 µM
same,TGI,PC-3 prostate,> 100 µM
same,TGI,SNB-19 CNS,> 100 µM
same,TGI,A549 NSCLC,> 100 µM
same,TGI,UO-31 renal,> 100 µM
same,TGI,SW-620 colon,> 100 µM
same,TGI,CAKI-1 renal,> 100 µM
same,TGI,SK-MEL-5 melanoma,> 100 µM
same,TGI,SF-268 CNS,> 100 µM
same,TGI,ACHN renal,> 100 µM
same,TGI,HL-60(TB) leukemia,> 100 µM
same,TGI,HOP-62 NSCLC,> 100 µM
same,TGI,MDA-MB-231 breast,> 100 µM
same,TGI,RXF 393 renal,> 100 µM
same,TGI,RPMI-8226 leukemia,65.4 µM
same,TGI,A498 renal,> 100 µM
same,TGI,HCT-116 colon,> 100 µM
same,TGI,SF-539 CNS,> 100 µM
same,TGI,HT29 colon,> 100 µM
same,TGI,NCI-H460 lung,> 100 µM
same,TGI,EKVX NSCLC,> 100 µM
same,TGI,SK-MEL-2 melanoma,> 100 µM
same,TGI,NCI/ADR-RES ovarian,> 100 µM
same,TGI,HOP-92 NSCLC,> 100 µM
same,TGI,HCT-15 colon,> 100 µM
same,TGI,KM12 colon,> 100 µM
same,TGI,OVCAR-4 ovarian,> 100 µM
same,TGI,NCI-H23 lung,> 100 µM
same,TGI,DU-145 prostate,> 100 µM
same,TGI,OVCAR-8 ovarian,> 100 µM
same,TGI,M14 melanoma,> 100 µM
same,TGI,T-47D breast,> 100 µM
same,TGI,NCI-H522 lung,> 100 µM
same,TGI,OVCAR-3 ovarian,> 100 µM
same,TGI,SK-OV-3 ovarian,> 100 µM
same,TGI,UACC-257 melanoma,> 100 µM
same,TGI,SF-295 CNS,> 100 µM
same,TGI,BT-549 breast,> 100 µM
same,TGI,786-0 renal,> 100 µM
same,TGI,TK-10 renal,> 100 µM
same,TGI,MOLT-4 leukemia,> 100 µM
same,TGI,UACC-62 melanoma,> 100 µM
same,TGI,NCI-H226 lung,> 100 µM
same,TGI,K-562 leukemia,> 100 µM
same,TGI,MALME-3M melanoma,> 100 µM
same,TGI,MCF7 breast,> 100 µM
same,TGI,COLO 205 colon,> 100 µM
same,TGI,SK-MEL-28 melanoma,> 100 µM
same,TGI,OVCAR-5 ovarian,> 100 µM
same,TGI,SR leukemia,> 100 µM
